Data set [1] is filed under the species Homo sapiens. Put plainly: Increase in SMN2 mRNA expression in induced pluripotent stem cell derived from human GM03813 cells isolated from SMA patient homozygous for deletion of exons 7 and 8 in SMN1 gene and containing 3 SMN2 gene copies at 1 uM by PCR assay relative to untreated control.
For another data set, the target named is Histone deacetylase 2 (Homo sapiens, UniProt Q92769). Put plainly: Inhibition of HDAC2 (unknown origin).
The target in a further data set is Histone deacetylase 3 (Homo sapiens, UniProt O15379). Put plainly: Inhibition of HDAC3 (unknown origin).
Data set [2] has as its target T1, Protein deacetylase HDAC6 (Homo sapiens, UniProt Q9UBN7).
T1 sequence (Q9UBN7 whole entry): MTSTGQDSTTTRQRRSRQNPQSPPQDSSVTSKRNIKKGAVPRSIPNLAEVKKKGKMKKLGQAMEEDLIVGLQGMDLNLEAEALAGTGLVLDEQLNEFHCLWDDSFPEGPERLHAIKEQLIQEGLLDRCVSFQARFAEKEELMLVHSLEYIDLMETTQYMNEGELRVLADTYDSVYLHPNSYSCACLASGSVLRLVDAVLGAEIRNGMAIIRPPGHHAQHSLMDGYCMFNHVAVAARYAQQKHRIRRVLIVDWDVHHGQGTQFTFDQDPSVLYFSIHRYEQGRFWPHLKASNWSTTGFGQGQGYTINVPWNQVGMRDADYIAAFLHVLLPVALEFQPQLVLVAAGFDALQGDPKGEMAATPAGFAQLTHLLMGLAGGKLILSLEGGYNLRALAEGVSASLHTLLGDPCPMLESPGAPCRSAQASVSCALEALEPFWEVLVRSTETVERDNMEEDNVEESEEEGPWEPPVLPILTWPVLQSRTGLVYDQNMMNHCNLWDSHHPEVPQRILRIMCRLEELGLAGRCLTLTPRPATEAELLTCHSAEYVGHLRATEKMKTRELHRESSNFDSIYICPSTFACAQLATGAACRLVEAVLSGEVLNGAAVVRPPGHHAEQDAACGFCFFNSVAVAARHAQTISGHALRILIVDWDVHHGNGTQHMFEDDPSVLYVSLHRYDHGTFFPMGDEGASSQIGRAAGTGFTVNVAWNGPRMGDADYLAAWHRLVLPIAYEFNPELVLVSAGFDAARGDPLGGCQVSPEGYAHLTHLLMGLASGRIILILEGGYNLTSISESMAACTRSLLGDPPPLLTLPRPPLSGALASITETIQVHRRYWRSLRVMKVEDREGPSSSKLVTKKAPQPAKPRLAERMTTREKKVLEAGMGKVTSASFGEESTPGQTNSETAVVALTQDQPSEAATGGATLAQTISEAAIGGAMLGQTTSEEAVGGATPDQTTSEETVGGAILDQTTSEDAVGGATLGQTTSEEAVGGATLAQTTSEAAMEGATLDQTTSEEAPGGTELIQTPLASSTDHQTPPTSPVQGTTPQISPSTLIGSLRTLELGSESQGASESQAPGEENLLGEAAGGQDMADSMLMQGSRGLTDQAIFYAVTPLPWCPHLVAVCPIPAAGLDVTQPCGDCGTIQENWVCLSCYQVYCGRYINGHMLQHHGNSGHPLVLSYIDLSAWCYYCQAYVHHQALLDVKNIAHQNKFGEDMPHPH
In words: Inhibition of HDAC6 (unknown origin).

The species entered for data set [3] is Homo sapiens. In words: Increase in SMN2 mRNA expression in induced pluripotent stem cell derived from human GM03813 cells isolated from SMA patient homozygous for deletion of exons 7 and 8 in SMN1 gene and containing 3 SMN2 gene copies at 0.1 uM by PCR assay relative to untreated control.
The target of the next data set is T2, Histone deacetylase 8 (Homo sapiens, UniProt Q9BY41).
T2 sequence (Q9BY41 whole entry): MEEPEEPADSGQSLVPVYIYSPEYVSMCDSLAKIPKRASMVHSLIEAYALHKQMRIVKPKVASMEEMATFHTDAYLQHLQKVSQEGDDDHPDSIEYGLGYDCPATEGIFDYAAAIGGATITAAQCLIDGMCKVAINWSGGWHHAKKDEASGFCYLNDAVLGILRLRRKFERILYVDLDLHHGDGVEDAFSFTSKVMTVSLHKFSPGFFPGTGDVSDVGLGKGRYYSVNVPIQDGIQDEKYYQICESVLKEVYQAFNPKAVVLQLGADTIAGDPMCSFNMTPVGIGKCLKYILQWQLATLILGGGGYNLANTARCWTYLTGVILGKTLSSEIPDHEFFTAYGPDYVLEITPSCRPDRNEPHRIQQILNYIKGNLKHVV
Put plainly: Inhibition of HDAC8 (unknown origin).

For data set [4], the species on record is Homo sapiens. In words: Increase in […] in induced pluripotent stem cell derived from human GM03813 cells isolated from SMA patient homozygous for deletion of exons 7 and 8 in SMN1 gene and containing 3 SMN2 gene copies assessed as increase in SMN protein aggregates (Gems) at 5 uM incubated for 48 hrs by confocal microscopy.
For data set [5], the species on record is Homo sapiens. Put plainly: Increase in SMN2 mRNA expression in induced pluripotent stem cell derived from human GM03813 cells isolated from SMA patient homozygous for deletion of exons 7 and 8 in SMN1 gene and containing 3 SMN2 gene copies at 0.1 to 5 uM by PCR assay relative to untreated control.
A short description of data set [6]: Toxicity against induced pluripotent stem cell derived from human GM03813 cells isolated from SMA patient homozygous for deletion of exons 7 and 8 in SMN1 gene and containing 3 SMN2 gene copies assessed as reduction in SMN2 protein level at 10 uM. It is filed as cell-based. Conditions: induced pluripotent stem cell-derived neuron.

Calls of active or inactive are those of the source. The calls are words filed in the database; no cut-off is given here. Square brackets hold non-standard residues; d marks the D form. Peptide text beside a SMILES is read from it. * marks the point of attachment. 1Nal = N[C@@H](Cc1cccc2ccccc12)C(=O)O; Asu = N[C@@H](CCCCCC(=O)O)C(=O)O; β3hL = CC(C)C[C@H](N)CC(=O)O; Nva = CCC[C@H](N)C(=O)O; NHOH = ON* Where only a bound is given, the exact number is not on record here.

Chain of Histone deacetylase 2 (Q92769 whole entry): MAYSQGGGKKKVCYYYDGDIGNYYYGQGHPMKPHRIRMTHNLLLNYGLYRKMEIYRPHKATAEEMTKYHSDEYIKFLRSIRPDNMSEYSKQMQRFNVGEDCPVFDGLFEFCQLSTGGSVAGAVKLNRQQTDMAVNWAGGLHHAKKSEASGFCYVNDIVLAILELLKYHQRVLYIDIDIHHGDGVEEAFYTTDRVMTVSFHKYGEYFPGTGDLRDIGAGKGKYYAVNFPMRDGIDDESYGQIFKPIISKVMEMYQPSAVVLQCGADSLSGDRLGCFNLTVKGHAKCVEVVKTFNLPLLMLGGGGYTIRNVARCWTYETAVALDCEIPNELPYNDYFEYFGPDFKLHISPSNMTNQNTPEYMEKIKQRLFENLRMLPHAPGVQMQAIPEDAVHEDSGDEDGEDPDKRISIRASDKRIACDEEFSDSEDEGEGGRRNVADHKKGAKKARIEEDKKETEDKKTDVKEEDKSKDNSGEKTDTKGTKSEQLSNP
Chain of Histone deacetylase 3 (O15379 whole entry): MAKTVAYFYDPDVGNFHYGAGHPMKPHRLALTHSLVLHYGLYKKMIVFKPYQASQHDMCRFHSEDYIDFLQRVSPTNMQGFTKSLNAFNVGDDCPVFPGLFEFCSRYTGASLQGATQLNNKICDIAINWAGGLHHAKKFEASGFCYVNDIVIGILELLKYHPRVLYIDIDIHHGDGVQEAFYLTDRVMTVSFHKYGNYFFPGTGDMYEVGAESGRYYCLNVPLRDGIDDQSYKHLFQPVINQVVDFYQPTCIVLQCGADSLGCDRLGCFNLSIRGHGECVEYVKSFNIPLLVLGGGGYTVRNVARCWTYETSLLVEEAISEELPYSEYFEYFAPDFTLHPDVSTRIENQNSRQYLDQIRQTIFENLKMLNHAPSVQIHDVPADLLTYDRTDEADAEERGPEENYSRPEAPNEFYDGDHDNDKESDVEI

Broadly, the IC50 is the point on the concentration scale where inhibition reaches its midpoint. Lower therefore signals greater potency. As to `CCC[C@@H]1NC(=O)[C@H](C)NC(=O)C[C@H](CC(C)C)NC(=O)[C@H](Cc2c[nH]c3ccccc23)NC1=O` (cyclo(A[Nva]W[β3hL])), the fold change (FC) in the data set filed under Homo sapiens [1] was 0.7 to 0.8. The IC50 at Histone deacetylase 2 is 1580 nM; against Histone deacetylase 3, 1440 nM.

On to `CC(C)C[C@H]1CC(=O)N[C@@H](C)C(=O)N[C@@H](CCCCCC(=O)C(F)(F)F)C(=O)N[C@@H](Cc2c[nH]c3ccccc23)C(=O)N1`, for which the IC50 in data set [2] worked out at 2800 nM; on Histone deacetylase 2, 32 nM. The fold change (FC) lay within 2.1 to 2.4 in the data set listed under Homo sapiens [1] and 1.2 to 1.3 in the data set filed under Homo sapiens [3].

Take `CCC(=O)CCCCC[C@@H]1NC(=O)[C@@H]2CCCN2C(=O)C[C@H](CC(C)C)NC(=O)[C@H](Cc2c[nH]c3ccccc23)NC1=O`: the 50% inhibitory concentration (IC50) on Histone deacetylase 8 turned out to be 1500 nM; against Histone deacetylase 2 it was 40 nM. For the same compound, the fold change (FC) in the data set filed under Homo sapiens [1] lay in the range of 1.2 to 2; in the data set listed under Homo sapiens [3], 1 to 1.4.

As for `CCC(=O)CCCCC[C@@H]1NC(=O)[C@H](C)NC(=O)C[C@H](CC(C)C)NC(=O)[C@H](Cc2cccc3ccccc23)NC1=O`, in the data set filed under Homo sapiens [1], the fold change (FC) fell in the range of 0.6 to 0.8.

Compound `CCC(=O)CCCCC[C@@H]1NC(=O)[C@@H](C)n2nncc2[C@H](CC(C)C)NC(=O)[C@H](Cc2c[nH]c3ccccc23)NC1=O` displayed a half-inhibitory concentration (IC50) on Histone deacetylase 8 of 110 nM. Also, the fold change (FC) in the data set listed under Homo sapiens [1] was 0.9 to 1.1; in the data set filed under Homo sapiens [3], 0.9.

Turning to `CC(C)C[C@H]1CC(=O)N[C@@H](C)C(=O)N[C@@H](CCCCCC(=O)NO)C(=O)N[C@@H](Cc2c[nH]c3ccccc23)C(=O)N1` (cyclo([Asu](NHOH)W[β3hL]A)), the values for the fold change (FC) in the data set listed under Homo sapiens [1] and in the data set listed under Homo sapiens [3] were 2 to 3 and 1.4 to 2.2, respectively. On Histone deacetylase 2, this compound had an IC50 of 5 nM.

Take `CCC(=O)CCCCC[C@@H]1NC(=O)[C@H](CCCCNC(C)=O)NC(=O)C[C@H](CC(C)C)NC(=O)[C@H](Cc2c[nH]c3ccccc23)NC1=O`: the outcome in the data set listed under Homo sapiens [4] was Active. Further, the 50% inhibitory concentration (IC50) in data set [2] was > 10000 nM. For the same compound, the fold change (FC) in the data set listed under Homo sapiens [1] fell in the range of 2.7 to 3.2; in the data set filed under Homo sapiens [3] it was 1 to 1.5. In addition, the figures for the Activity result (in the data set filed under Homo sapiens [5]; in [6]) were “Dose-dependent effect” and “Toxic”, respectively.

With `CC(C)C[C@H]1CC(=O)N[C@@H](C)C(=O)N[C@@H](CCCCCC(=O)O)C(=O)N[C@@H](Cc2cccc3ccccc23)C(=O)N1` (cyclo([Asu][1Nal][β3hL]A)), the fold change (FC) is 1.4 to 1.5 in the data set filed under Homo sapiens [1] and 1.1 to 1.6 in the data set filed under Homo sapiens [3].

As for `CCC[C@@H]1NC(=O)[C@H](C)NC(=O)C[C@H](CC(C)C)NC(=O)[C@H](Cc2cn(CN(C)C)c3ccccc23)NC1=O`, in the data set filed under Homo sapiens [1], the fold change (FC) was 1.5 to 1.8.

For the compound `CC(C)C[C@H]1CC(=O)N[C@@H](CCCCN)C(=O)N[C@@H](CCCCCC(=O)O)C(=O)N[C@@H](Cc2cccc3ccccc23)C(=O)N1` (cyclo([Asu][1Nal][β3hL]K)), the fold change (FC) is 0.6 to 1.1 in the data set filed under Homo sapiens [1] and 1 in the data set filed under Homo sapiens [3].

As for `CCC(=O)CCCCC[C@@H]1NC(=O)[C@H](Cc2ccccc2)NC(=O)C[C@H](CC(C)C)NC(=O)[C@H](Cc2c[nH]c3ccccc23)NC1=O`, the fold change (FC) is 0.8 to 1.4 in the data set listed under Homo sapiens [1] and 0.6 to 1 in the data set listed under Homo sapiens [3].

On to `CC(C)C[C@H]1CC(=O)N[C@@H](Cc2ccccc2)C(=O)N[C@@H](CCCCCC(=O)NO)C(=O)N[C@@H](Cc2c[nH]c3ccccc23)C(=O)N1` (cyclo([Asu](NHOH)W[β3hL]F)), for which the results for the fold change (FC) in the data set filed under Homo sapiens [1] and in the data set listed under Homo sapiens [3] were 2.7 to 3.6 and 1 to 1.5, respectively.

(Values after ChEMBL document CHEMBL4052703, “Cyclic tetrapeptide HDAC inhibitors as potential therapeutics for spinal muscular atrophy: Screening with iPSC-derived neuronal cells” (Bioorg Med Chem Lett, 2017).)
